# Measured values from US5594009A, “Fused pyrrolocarbazoles” (priority 1995, dated 1997).
# Read-outs that look alike come from different tables or passages of the source.
# How the values were obtained:
# [1] = molecular target: protein kinase C; assay: PKC Activity Inhibition Assay; format: biochemical
# Protocol: Fused pyrrolocarbazoles inhibited the activity of protein kinase C (Table VI). The protein kinase C assay has been disclosed (Murakata et al., U.S. Pat. No. 4,923,986; Kikkawa et al., J. Biol. Chem. 257:13341-13348 (1982)). The assay was performed with several concentrations of fused pyrrolocarbazoles. The concentration at which protein kinase C was 50% inhibited (IC50) was determined.
# [2] = tested on: choline acetyltransferase (ChAT) activity in dissociated rat embryonic spinal cord culture; assay: Spinal Cord ChAT Activity Assay; format: cell-based; settings: ChAT measured after 48 hours
# Protocol: In these assays, a fused pyrrolocarbazole was directly added to a dissociated spinal cord culture. […] The fused pyrrolocarbazole was added on the same day the dissociated spinal cord cell culture was initiated.
# Methods: Fetal rat spinal cord cells were dissociated, and experiments were performed as described (Smith et al., J. Cell Biology., 101:1608-1621 (1985); Glicksman et al., J. Neurochem. 61:210-221 (1993)). Dissociated cells were prepared from spinal cords dissected from rats (embryonic day 14-15) by standard trypsin dissociation techniques (Smith et al., J. Cell Biology 10:1608-1621 (1985)). Cells were plated at 6×10^5 cells/cm^2 on poly-1-ornithine coated plastic tissue culture wells in serum-free N2 medium supplemented with 0.05% bovine serum albumin (BSA) (Bottenstein et al., PNAS USA 514-517 (1979)). Cultures were incubated at 37° C. in a humidified atmosphere of 5% CO2 /95% air for 48 hours. ChAT activity was measured after 2 days it vitro using a modification of the Fonnum procedure (Fonnum, J. Neurochem. 24:407-409 (1975)) according to McManaman et al. and Glicksman et al. (McManaman et al., Developmental Biology 125:311-320 (1988); Glicksman et al., J. Neurochem. 61:210-221 (1993)).
# [3] = tested on: ChAT activity of basal forebrain cultures; assay: Basal Forebrain ChAT Activity Assay; format: cell-based, rat
# Protocol: Fused pyrrolocarbazoles were tested for the ability to increase ChAT activity of basal forebrain cultures.
# Methods: The basal forebrain was dissected from rat embryos (day 17 or 18 embryos) and the cells were dissociated with a neutral protease (Dispase™, Collaborative Research). Neurons were plated at a density of 5×10^4 cells/well (1.5×10^5 cells/cm^2) in poly-1-ornithine and laminin coated plates. Cells were cultured in serum-free N2 medium containing 0.05% BSA at 37° C. in a humidified atmosphere, 5% CO2 /95% air. ChAT activity was assessed 5 days after plating by using the ChAT assay as described in Example III(A)(1).
# [4] = tested on: AT-2 cells; assay: Inhibition of Growth of Prostate Cancer Cell Line (MTS assay); format: cell-based; settings: 72 h, read-out: AT-2 cell growth IC50
# Protocol: AT-2 cells are a prostate cancer cell sub-line derived from the Dunning H tumor, graciously provided to us by Dr. John Isaacs (John Hopkins, M. D.). Unlike the Dunning H tumor cells, AT-2 cells can be grown in vitro.
# Methods: At-2 cells ([…]) were plated on tissue culture plastic in 96-well plates in the presence of RPMI-1640 medium containing 10% fetal calf serum, 250 nM dexamethasone, 2 mM glutamine, 1 mM sodium pyruvate, and penicillin/streptomycin antibiotics. The next day, compounds were added at 4 concentrations (10, 1, 0.1, 0.01 μM) to determine the approximate IC50 range. Cultures were assayed 3 days later for cell number using the MTS [(3-(4,5-dimethylthiazol-2-yl)-5-(3-carboxymethoxyphenyl)-2-(4-sulfophenyl)-2H-tetrazolium, inner salt)] assay. The MTS assay (purchased as a kit from Promega) measures the formation of an aqueous soluble formazan (detected by a plate reader at 490nm) produced by the bioreduction of a tetrazolium compound (MTS) in metabolically active cells via mitochondrial succinate dehydrogenase. After determining linearity of the substrate incubation time over a range of cell plating densities, the amount of product measured is directly proportional to cell number. MTS (333 ug/ml) and 25 μM phenazine methosulfate are mixed and added directly to the culture medium, and incubated at 37° C. in the 5% CO2 /95% air incubator for 0.5-4 h. Absorbance of the product at 490 nm is read on the BIO-TEK plate reader. Background values were obtained from wells containing culture medium with substrate solution, but no cells. In addition, values were also obtained from wells containing cells plated at day 0 and assayed on the day compound was added (day 1) in order to determine the number of cells at the time compound was added. After the initial dose-finding experiment was completed, subsequent experiments were set up so that there were 3 or more concentrations near the predicted IC50.
# [5] = molecular target: trkA tyrosine kinase (Homo sapiens, UniProt P04629); assay: trkA Tyrosine Kinase Activity Inhibition Assay (ELISA); format: biochemical
# [6] = tested on: NT-3 induced ChAT activity of rat basal forebrain cultures; assay: Enhancement of Neurotrophin (NT-3) Activity Assay, ChAT activity in basal forebrain cultures; format: cell-based
# Protocol: Fused pyrrolocarbazoles were tested for the ability to enhance the activity of the neurotrophin NT-3 in basal forebrain cultures. ChAT activity was assayed as a measure of cholinergic neuron function and survival. The concentration of NT-3 (100 ng/ml) used in these experiments increased ChAT activity over control cultures (untreated with NT-3 or a fused pyrrolocarbazole) by 140%.
# Methods. Basal forebrain cultures were prepared from embryonic rats (embryonic day 17) and dissociated with the neutral protease Dispase™. Cells were plated at a density of 4×10^5 cells/cm^2 on poly-1-ornithine coated plastic tissue culture plates in a mixture of DMEM and F12 media (50/50 v/v GIBCO) supplemented with 5% horse serum and 0.5% fetal bovine serum. Cells were incubated at 37° C. in a humidified atmosphere of 5% CO2 /95% air for 5 days. ChAT activity was measured as described in Example III(A)(1).
# Recombinant rat NT-3 was produced by using a recombinant baculovirus expression vector under the control of the polyhedron virus promoter (Fraser, In Vitro Cell. and Dev. Biol. 25:225-235 (1989)). The plasmid pXM-NT3 (Hallbook et al., Neuron 6:845-858 (1991), which contained the rat NT-3 cDNA clone, was provided by Dr. Ira Black (University of Medicine and Dentistry of New Jersey, Piscataway, N.J.). NT-3 cDNA was subcloned into the transfer vector pVL1392 (In Vitrogen Corp., San Diego, Calif.) for recombinant virus production. Recombinant baculovirus was produced as described in Meyer et al. (Meyer at al., J. Neurochem 62:825-833 (1994)).
# [7] = tested on: indoleamine 2,3-dioxygenase (IDO) mRNA in THP-1 cells; assay: Inhibition of Induction By IFNγ of IDO mRNA; format: cell-based; settings: Homo sapiens, compound 400 nM, IFNγ 400 units/ml, IDO/GAPD mRNA ratio, 48 hours, read-out: IDO mRNA, Phosphorimager units, % of IFNγ-treated cells
# Protocol: Fused pyrrolocarbazoles in accordance with our invention were tested for their ability to inhibit the induction by IFNγ of indoleamine 2,3-dioxygenase (IDO) mRNA in THP-1 cells, a human monocyte cell line.
# Cell Culture: THP-1 cells (American Type Culture Collection, Rockville, Md.), a human monocytic leukemia cell line, were grown in RPMI 1640 medium (Mediatech, Herndon Valley, Va.) with 50 μM 2-mercaptoethanol and 10% fetal bovine serum. Cells were plated in T75 culture flasks, at 4×10^4 cells/cm^2 in 10 ml of medium, and were immediately treated with fused pyrrolocarbazoles at various concentrations. After 30 minutes recombinant (E. coli) IFNγ (Boehringer Mannheim Corporation,Indianapolis, Ind.) was added at 200-400 units/ml. Cells were incubated (37° C., 5% CO2 /95% Air) for 48 hours after treatment.
# RNA Isolation: Cells were pelleted by centrifugation (50× g, 7 min.) and medium was decanted. The cells were then washed two times with phosphate buffered saline pH 7.2 (PBS) (Mediatech, Herndon Valley, Va.). The washed cell pellet was lysed in 2 ml RNAzol B (Tel-Test, Inc., Friendswood, Tex.). RNA was isolated by chloroform extraction, precipitated, and washed following the "RNAzol B isolation of RNA" protocol accompanying this product. RNA was then solubilized in H2 O, and the concentration and purity were determined by reading the absorbance at A260 nm and A280 nm. Finally, the RNA was reprecipitated in ethanol, overnight at -20° C.
# cDNA Probes: Indoleamine 2,3-dioxygenase (IDO) cDNA was received from Sohan L. Gupta, Ph. D. (Hipple Cancer Research Center, Dayton, Ohio) (see Da., W. & Gupta, S. L. 168 Biochem. Biophys. Res. Commun. 1, 1990 and Hassanain, H. H. et al. 268 J. Biol. Chem. 5077, 1993). Glyceraldehyde-3-phosphate dehydrogenase (GAPD) cDNA was obtained through American Type Culture Collection (Rockville, Md.). These cDNA's were produced and purified using standard methods (see, Sambrook, Fritsch, Maniatis (1989) Molecular Cloning a Laboratory Manual/Second Edition 1, 1.21-1.24, 1.74-1.81, hereinafter in this Example, "Maniatis a") using Qiagen plasmid purification kits (Qiagen Inc., Chatsworth, Calif.). DNA concentration and purity were determined by absorbance at 280 nm and 260 nm. Specific DNA inserts were cut out by standard methods using restriction enzymes, and subsequently separated on agarose gels as in Maniatis (see, Sambrook, Fritsch, Maniatis (1989) Molecular Cloning a Laboratory Manual/Second Edition 1, 6.9-6.15, hereinafter in this Example, "Maniatis b"). cDNA probes were further purified for [^32 P] labeling using the Geneclean II DNA purification kit (BIO 101, Inc., La Jolla, Calif.). Probes were labeled with dCTP-α-^32 P (Amersham Corp., Arlington Heights, Ill.) by random primer labeling, using the Prime-a-GeneLabeling System (Promega Corp., Madison, Wis.).
# Analysis and quantification of mRNA: IDO mRNA was detected by Northern blot analysis (see Maniatis a, p. 7.39-7.51) using standard methods. […] Quantification of IDO mRNA was carried out using a phosphorimager (Molecular Dynamics) in which density (i.e., amount of RNA) is expressed as relative phosphorimager units. […] GAPD mRNA measurement by phosphorimager quantification of Northern blots serves as a means to normalize for potential sample to sample differences in the amount of total RNA loaded on gels. […]
# [8] = tested on: chick DRG neurons; assay: DRG Neuron Survival Assay (calcein AM); format: cell-based; settings: 48 hours; for viability at 0.25 µM: 250 nM
# Protocol: Fused pyrrolocarbazoles promoted dorsal root ganglion (DRG) neuronal survival in cultures of chick DRG neurons. Cell survival was measured by uptake of calcein AM, an analog of the viable dye, fluorescein diacetate. Calcein is taken up by viable cells and cleaved intracellularly to fluorescent salts which are retained by intact membranes of viable cells. Microscopic counts of viable neurons correlate directly with relative fluorescence values obtained with the fluorimetric viability assay. This method thus provides a reliable and quantitive measurement of cell survival in the total cell population of a given culture (Bozyczko-Coyne et al., J. Neur. Meth. 50:205-216, 1993).
# Methods: Dorsal root ganglia were dissected from embryonic age day 9 chick embryos and dissociated cells prepared by subsequent Dispase (neutral protease, Collaborative Research) dissociation. Neurons were seeded at low density (3×10^4 cells/cm^2) into 96 well poly-L-ornithine and laminin coated plates. Cells were cultured for 48 hours in serum-free N2 medium (Bottenstein and Sato, 1979) at 37° C. in a humidified atmosphere, 5% CO2 /95% air. Cell survival was assessed at 48 hours using the viable fluorimetric assay described above.
# [9] = 16 μM ATP, 37° C., 15 min, read-out: INHIBITION OF trkA KINASE IC50
# [10] = Gallus gallus, DRG neuron, read-out: Neuronal Survival (% of Control)
# Chain of trkA tyrosine kinase (P04629 33-796): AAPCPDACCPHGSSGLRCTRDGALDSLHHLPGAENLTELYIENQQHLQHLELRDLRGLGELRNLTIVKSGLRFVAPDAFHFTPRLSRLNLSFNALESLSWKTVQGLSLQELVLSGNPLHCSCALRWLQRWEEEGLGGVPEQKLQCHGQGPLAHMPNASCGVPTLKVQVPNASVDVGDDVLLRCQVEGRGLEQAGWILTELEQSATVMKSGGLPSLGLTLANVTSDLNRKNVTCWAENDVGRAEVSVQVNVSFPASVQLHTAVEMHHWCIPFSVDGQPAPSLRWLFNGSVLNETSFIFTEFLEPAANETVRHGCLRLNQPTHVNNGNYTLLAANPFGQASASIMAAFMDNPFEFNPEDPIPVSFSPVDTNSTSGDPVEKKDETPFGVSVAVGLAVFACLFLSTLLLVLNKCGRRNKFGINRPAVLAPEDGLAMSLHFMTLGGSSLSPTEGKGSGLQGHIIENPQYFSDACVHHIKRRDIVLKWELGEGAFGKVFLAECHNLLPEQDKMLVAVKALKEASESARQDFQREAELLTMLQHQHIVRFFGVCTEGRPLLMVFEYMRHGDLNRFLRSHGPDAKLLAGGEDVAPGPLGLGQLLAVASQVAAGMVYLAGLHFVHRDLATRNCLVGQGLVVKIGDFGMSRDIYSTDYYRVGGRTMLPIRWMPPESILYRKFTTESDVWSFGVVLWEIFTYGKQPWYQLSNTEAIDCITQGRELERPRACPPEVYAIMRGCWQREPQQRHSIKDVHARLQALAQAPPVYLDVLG
SMILES,IC50 [1],"Spinal Cord ChAT Activity, % of Control, untreated cultures [2]",ChAT Activity (% of Control) ([3]; 100 nM),"IC50 ([4]; 3 days, MTS)","IC50 [5, 9]","viability at 0.25 µM [8, 10]",also measured
O=C1NCc2c3c(c4[nH]c5ccccc5c4c21)Cc1ccccc1-3 [Compound I-3],0.1 µM,174 % of Control,inactive,0.38 µM,,,"ChAT Activity (% of Control) ([3]; 250 nM): inactive; activity at 0.5 µM ([3]; Rattus norvegicus, 120 h, 500 nM, read-out: ChAT Activity (% of Control)): 130%"
O=C1NC(=O)c2c1c1c(c3[nH]c4ccc(F)cc4c23)Cc2ccccc2-1 [Compound I-7],0.15 µM,164 % of Control,,1.37 µM,> 1 µM,,"ChAT activity in the absence of NT-3 ([6]; compound added alone to basal forebrain neurons, no NT-3): no effect on ChAT activity; ChAT activity in the presence of NT-3 ([6]; with 100 ng/ml NT-3): enhanced ChAT activity"
"O=C1NCc2c1c1c(c3[nH]c4ccc(Br)cc4c23)Cc2ccccc2-1 [Compound I-9, 3-Bromo-5H, 6H, 12H, 13H-indeno[2,3-a]pyrrolo[3,4-c]carbazole-7(7H)one]",4.5 µM,185 % of Control,,,,,mrna remaining at 0.4 µM [7]: 60%
"O=C1NC(=O)c2c1c1c3ccccc3ccc1c1[nH]c3ccccc3c21 [Compound I-15, 6H, 14H-naphthyl[3,4-a]pyrrolo[3,4-c]carbazole-5,7(5H, 7H)-dione]",0.05 µM,182 % of Control,,,,132%,IC50 [5]: > 1 µM; Neuronal Survival (% of Control) ([8]; 100 nM): inactive; Neuronal Survival (% of Control) ([8]; 500 nM): inactive; IC50 [4]: 4.3 µM
"O=C1NC(=O)c2c1c1c3ccccc3[nH]c1c1sc3ccccc3c21 [Compound I-20, 6H, 12-Benzo[b]thieno[2,3-a]pyrrolo[3,4-c]carbazole-5,7(5H,7H)dione]",0.15 µM,130 % of Control,,> 10 µM,,,
"O=C1NCc2c1c1c(c3[nH]c4ccc(C=Cc5ccccc5)cc4c23)Cc2ccccc2-1 [Compound I-24, 3-(2-Phenylethenyl)5H,6H,12H,13H-indeno[2,3-a]pyrrolo[3,4-c]carbazole-7(7H)-one]",8 µM,236 % of Control,inactive,> 10 µM,> 1 µM,167%,"viability at 0.1 µM ([8]; Gallus gallus, DRG neuron, 100 nM, read-out: Neuronal Survival (% of Control)): 154%; viability at 0.5 µM ([8]; Gallus gallus, DRG neuron, 500 nM, read-out: Neuronal Survival (% of Control)): 163%; activity at 0.25 µM ([3]; Rattus norvegicus, 120 h, 250 nM, read-out: ChAT Activity (% of Control)): 151%"
